Assay results taken from US5750362A, “Methods for identifying substances with a potential herbicidal or growth-regulating action by means of plant transporter proteins, the use of the transporter proteins, and substances with a herbicidal and growth-regulating action” (BASF Aktiengesellschaft, priority 1993, dated 1998).

Assays:
[1] = molecular target: T1, ammonium transporter AMT1 (Arabidopsis thaliana, UniProt P54144); assay: cell-based
T1 construct: expressed in transfected cells; host or cells: Saccharomyces cerevisiae 26972c (mutations in MEP1 and MEP2)
T1 sequence (P54144 1-501): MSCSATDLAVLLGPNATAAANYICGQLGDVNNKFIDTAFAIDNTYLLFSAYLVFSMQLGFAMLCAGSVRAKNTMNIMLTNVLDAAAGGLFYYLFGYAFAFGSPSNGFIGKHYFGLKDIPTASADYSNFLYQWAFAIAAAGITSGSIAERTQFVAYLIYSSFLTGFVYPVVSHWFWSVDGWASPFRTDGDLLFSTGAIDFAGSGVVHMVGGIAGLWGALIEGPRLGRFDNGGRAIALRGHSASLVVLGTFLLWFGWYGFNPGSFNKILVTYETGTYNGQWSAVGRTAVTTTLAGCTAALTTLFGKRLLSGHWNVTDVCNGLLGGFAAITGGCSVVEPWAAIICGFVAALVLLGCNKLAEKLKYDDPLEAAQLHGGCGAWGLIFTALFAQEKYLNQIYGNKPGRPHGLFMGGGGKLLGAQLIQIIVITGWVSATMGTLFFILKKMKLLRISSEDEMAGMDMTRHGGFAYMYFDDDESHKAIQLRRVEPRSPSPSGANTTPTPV
Procedure: The measurements of transport identify inhibitors of plant ammonium transporters are carried out with the structural analog methylamine because radiolabeled ammonium is not commercially obtainable.
The yeast cells are transformed by standard methods with cDNA sequences which code for an ammonium transporter from plants and which permit expression of a functional transporter in the yeast cells. […] The cells are cultured in NAAG-medium (2% glucose, 1.7 g/l yeast nitrogen-base w/o amino acids and ammonium sulfate (Difco), supplemented with 500 μg/ml L-proline) at 28 degrees Celsius, and harvested in the logarithmic phase (OD660.=0.6). The cells are then spun down in a centrifuge at 4000 rpm and 4 degrees Celsius for 10 minutes, washed twice with 20 mM sodium phosphate buffer, pH 7, and taken up in the same buffer to an 0D660 of 8. 200 μl aliquot fractions of the cell suspension are taken. 5 minutes before the actual measurement,the yeasts are activated by addition of 100 mM glucose and incubated at 30 degrees Celsius. To start the reaction, 100 μl of the cell suspension are added to 100 µl of reaction mixture (20 mM Na phosphate buffer, pH7; 18.5 kBq of [^14 C]-methylamine (NEN); 100 M methylamine; substance to be tested depending on the experiment (see FIG. 4)). In each case 10, 60, 120 and 180 seconds after starting the reaction, 50 μl aliquots are taken, added to 4 ml of ice-cold 5 mM methylamine solution and filtered on glass fibre filters. After the filters have been washed with a further 8 ml of a methylamine solution, the radioactivity on the filters is subsequently determined in a liquid scintillation counter. Inhibitors are added 60 seconds before adding the glucose.
The uptake of radiolabeled methylamine without addition of a potential inhibitor is determined as one control.

[2] = molecular target: T2, amino-acid transporter AAP2 (Arabidopsis thaliana, UniProt Q38967); assay: Uptake of radiolabeled L-proline by yeast mutant 22457d-AAP2 expressing the plant amino-acid transporter; type: cell-based; conditions: read-out: Activity relative to control [%]
T2 construct: expressed in transfected cells; host or cells: Saccharomyces cerevisiae mutant 22574d (also printed 22457d)
T2 sequence (Q38967 1-493): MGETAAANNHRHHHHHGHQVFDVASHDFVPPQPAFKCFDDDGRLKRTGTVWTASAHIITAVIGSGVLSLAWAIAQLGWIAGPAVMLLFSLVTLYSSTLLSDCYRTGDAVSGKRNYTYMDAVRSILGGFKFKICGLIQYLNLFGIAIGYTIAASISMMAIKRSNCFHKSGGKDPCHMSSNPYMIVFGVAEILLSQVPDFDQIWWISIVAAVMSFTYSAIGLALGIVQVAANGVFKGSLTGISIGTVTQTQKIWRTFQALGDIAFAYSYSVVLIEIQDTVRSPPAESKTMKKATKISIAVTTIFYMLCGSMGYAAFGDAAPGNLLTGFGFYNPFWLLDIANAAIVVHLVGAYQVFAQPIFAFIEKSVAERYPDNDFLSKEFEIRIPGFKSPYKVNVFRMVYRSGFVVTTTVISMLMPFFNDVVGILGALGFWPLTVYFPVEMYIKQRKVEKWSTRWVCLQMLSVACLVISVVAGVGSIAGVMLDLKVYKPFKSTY
Procedure: Transporter investigations are carried out on the yeast mutant 22574d (Jauniaux & Grenson, Eur. J. Biochem. 190: 39-44, 1990), which harbors a mutation in the gene for amino-acid permease, and on the yeast mutant JT 16 (Tanaka and Fink, Gene 38: 205-214, 1985) which is incapable of histidine uptake, for identification of inhibitors of plant amino-acid transporters. These mutants are transformed with cDNA sequences which code for plant amino-acid transporters and lead to expression of functional transporters in the yeast cells. The cDNA sequences are cDNA sequences which code for the amino-acid transporters AAP1 and AAP2 from Arabidopsis thaliana (Frommer et al., 1993, Proc. Natl. Acad. Sci. USA 90: 5944-5948; Kwart et al., 1993, Plant J. 4:993-1002). For the measurements, cells of these mutants are cultured in minimal medium (NAAG+5 mmol/l proline) at 28° C. and harvested in the logarithmic phase (OD600 =0.6). The cells are spun down in a centrifuge at 4000 rpm and 4 degrees Celsius for 10 minutes and washed 2× with AUB buffer (modified AAB buffer, Ljungdahl et al.). The cell concentration is adjusted to an OD600 of 25 in AUB buffer.
100 μl portions of the cell suspension are mixed with 100 μl of a 1 mmol/l L-proline solution (18.5 kBq of L-[14C]-proline) and various concentrations of the appropriate substance to be investigated. After 20, 60, 120 and 180 seconds, a 50 μl aliquot is removed, diluted in 4 ml -of ice-cold AUB buffer and filtered through glass fever [sic] filter. In order to remove nonspecifically bound L-[14C]-proline, the cells are washed 2× with 4 ml of ice-cold water each time. The radioactivity retained on the glass filter is then measured in a liquid scintillation counter. The radioactivity reflects the amount of radiolabeled proline taken up by the cells. Uptake of radiolabeled proline without addition of a potential inhibitor is determined as one control. Cells of each of the mutants 22574d and JY 16 which have not been transformed with cDNA sequences coding for plant amino-acid transporters are used as further control. Results of measurements of this type on the mutants 22457d-AAP2 which expresses the amino-acid transporter AAP2 from Arabisopsis [sic] thaliana are shown in the following table.
For the investigations, yeast cells of the strain 22457d were transformed with a cDNA sequence which codes for the amino-acid transporter AAP2, and the uptake of radiolabeled proline in the presence of various substances was determined. The various substances tested, their concentration, and the activity of the transporter, shown as percentage activity of the control with which no potential inhibitors were added, are indicated.

[3] = molecular target: T3, sucrose transporter P62 (StSUT1) (Solanum tuberosum, UniProt Q43653); assay: [14C]-sucrose uptake by yeast strain SUSY-7-P62 (StSUT1) expressing the potato sucrose transporter; type: cell-based
T3 construct: whole-cell [14C]-sucrose uptake; no tag or borders given
T3 sequence (Q43653 1-516): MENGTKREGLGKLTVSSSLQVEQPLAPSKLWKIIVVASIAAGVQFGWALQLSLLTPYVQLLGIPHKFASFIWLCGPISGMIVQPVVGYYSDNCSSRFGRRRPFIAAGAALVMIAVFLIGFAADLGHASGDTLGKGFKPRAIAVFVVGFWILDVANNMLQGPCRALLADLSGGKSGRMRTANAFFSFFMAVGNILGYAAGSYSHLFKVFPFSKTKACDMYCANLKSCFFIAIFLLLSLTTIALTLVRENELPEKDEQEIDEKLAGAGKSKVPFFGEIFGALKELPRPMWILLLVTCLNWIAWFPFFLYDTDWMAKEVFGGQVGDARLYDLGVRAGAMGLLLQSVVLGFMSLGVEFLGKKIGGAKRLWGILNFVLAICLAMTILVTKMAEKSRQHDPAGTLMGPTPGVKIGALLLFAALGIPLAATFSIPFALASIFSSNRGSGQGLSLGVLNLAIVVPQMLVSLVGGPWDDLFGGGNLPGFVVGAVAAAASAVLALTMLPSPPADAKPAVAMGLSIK
Excerpt: Yeast cells of the strain SUSY7 (Riesmeier et al., 1992, EMBO J. 11: 4705-4713) are used to identify substances which have an inhibitory effect on sucrose transporters from potato. Cells of this strain are transformed with a cDNA sequence which codes for the sucrose transporter P62 (StSUT1) from potato (WO 94/00574, Riesmeier et al., 1993, Plant Cell 5:1591-1598) and which ensures expression of a functional transporter in the cells. The resulting yeast strain was called SUSY-7-P62 (StSUT1). The yeast cells are cultured in minimal medium (SD +2% (w/v) sucrose, pH 3.8) at 28° C. and harvested in the logarithmic phase (OD600 =0.6). The cells are spun down at 4000 rpm for 10 minutes and washed twice with SD medium. A cell concentration of c=50 g/l in SD medium is adjusted according to the wet weight of the cells, and 200 Al aliquot fractions are taken. Before the actual reaction, the cells are incubated in 10 mM glucose for 5 min and adjusted to pH 3.8 with MES buffer. The reaction is started by adding 200 Al of a 0.2 mmol/l [14C]-sucrose solution (3 mCi/mmol) in SD medium (pH 3.8). After 20, 60, 120, 180 and 240 seconds, 70 μl portions of the suspension are removed and pipetted into 4 ml of ice-cold water in order to stop the reaction. The cells are filtered off on glass fiber filters and washed twice with ice-cold water. The radioactivity on the filters is subsequently determined in a liquid scintillation counter. The substances to be tested are added 30 seconds before addition of the sucrose. The uptake of radiolabeled sucrose without addition of a potential inhibitor is determined as one control. Cells of the strain SUSY7 which are not transformed with cDNA sequences coding for a sucrose transporter from potato are employed as further control.
The various tested substances, their concentration and the activity of the transporter, shown as percentage activity of the control in which no potential inhibitors were added, are indicated.

[4] = system: plants; assay: Herbicidal activity on plants; type: in vivo; conditions: whole plants; result in words
[5] = molecular target: T4, sucrose transporter S21 (SoSUT1) (Spinacia oleracea, UniProt Q03411); assay: [14C]-sucrose uptake by yeast strain SUSY7 expressing the spinach sucrose transporter; type: cell-based; conditions: [14C]-sucrose uptake, pH 3.8; tested substance 0.1 mM
T4 construct: expressed in transfected cells; host or cells: Saccharomyces cerevisiae SUSY7
T4 sequence (Q03411 1-525): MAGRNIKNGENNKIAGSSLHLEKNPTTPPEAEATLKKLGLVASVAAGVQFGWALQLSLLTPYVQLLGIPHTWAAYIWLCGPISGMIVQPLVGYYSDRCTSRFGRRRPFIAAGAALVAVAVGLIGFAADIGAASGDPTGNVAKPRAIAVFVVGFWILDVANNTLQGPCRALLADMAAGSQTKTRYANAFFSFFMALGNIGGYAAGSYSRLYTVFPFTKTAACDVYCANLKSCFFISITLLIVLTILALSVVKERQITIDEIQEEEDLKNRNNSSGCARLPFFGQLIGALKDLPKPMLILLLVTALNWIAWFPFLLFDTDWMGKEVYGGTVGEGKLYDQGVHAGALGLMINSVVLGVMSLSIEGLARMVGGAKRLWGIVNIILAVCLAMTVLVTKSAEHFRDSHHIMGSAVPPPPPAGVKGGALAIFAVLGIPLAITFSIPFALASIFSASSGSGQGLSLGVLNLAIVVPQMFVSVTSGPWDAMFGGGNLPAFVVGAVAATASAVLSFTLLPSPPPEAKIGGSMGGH
Procedure: Yeast cells of the strain SUSY7 (Riesmeier et al., 1992, EMBO J. 11: 4705-4713) are used to identify substances which have an inhibitory effect on sucrose transporters from spinach. Cells of this strain are transformed with a cDNA sequence which codes for the sucrose transporter S21 (SoSUT1) from spinach and which ensures expression of a functional transporter in the cells. The yeast cells are cultured in minimal medium (SD+2% (w/v) sucrose, pH 3.8) at 28° C. and harvested in the logarithmic phase (OD600 =0.6). The cells are spun down at 4000 rpm for 10 minutes and washed twice with SD medium. A cell concentration of c=50 g/l in SD medium is adjusted according to the wet weight of the cells, and 200 μl aliquot fractions are taken. Before the actual reaction, the cells are incubated in 10 mM glucose for 5 min and adjusted to pH 3.8 with MES buffer. The reaction is started by adding 200 μl of a 0.2 mmol/l [14C]-sucrose solution (3 mCi/mmol) in SD medium (pH 3.8). After 20, 60, 120, 180 and 240 seconds, 70 μl portions of the suspension are removed and pipetted into 4 ml of ice-cold water in order to stop the reaction. The cells are filtered off on glass fiber filters and washed twice with ice-cold water. The radioactivity on the filters is subsequently determined in a liquid scintillation counter. The substances to be tested are added 30 seconds before addition of the sucrose. The uptake of radiolabeled sucrose without addition of a potential inhibitor is determined as one control. Cells of the strain SUSY7 which are not transformed with cDNA sequences coding for a sucrose transporter from spinach are employed as further control.
The various tested substances, their concentration and the activity of the transporter, shown as percentage activity of the control in which no potential inhibitors were added, are indicated. Substances which specifically show an inhibitory effect on the sucrose transporter S21 (SoSUT1), are tested for their herbicidal and growth-regulating effect on whole plants.

[6] = system: sucrose transporters; conditions: Bush, 1989, Plant Physiol. 89: 1318-1323; result in words; cited from earlier work

SMILES | remaining activity at 100 µM ([1]; pH 7, read-out: Activity relative to the control [%]) [%] | remaining activity at 100 µM [2] [%] | remaining activity at 100 µM ([3]; pH 3.8, read-out: Activity relative to the control [%]) [%] | remaining activity at 500 µM ([1]; pH 7, [14C]-methylamine uptake, tested substance 500 μM, read-out: Activity relative to the control [%]) [%] | Herbicidal activity on plants [4] | Activity relative to the control [%] [5] [%] | Inhibition of sucrose transport [6] | Activity relative to the control [%] ([3]; [14C]-sucrose uptake, pH 3.8, tested substance 0.1 mM)
O=[N+]([O-])c1ccc(O)c([N+](=O)[O-])c1 [DNP] | 18 | 7.6 ± 1.6 | 3 |  |  |  |  | 
CN [Methylamine] |  |  |  | 40 | herbicidal activity on plants |  |  | 
O=S(=O)(O)c1cc[c]([Hg][Cl])cc1 [PCMBS] |  |  |  |  | herbicidal activity on plants | 21 | highly effective transport inhibitors | 20
